This is an account of results in patent EP4818158A1, “BIARYL COMPOUND” (Kissei Pharmaceutical Co., Ltd., priority 2023, dated 2025).

One may read the IC50 as the concentration needed to halve the response being measured. Read a high IC50 as weaker potency.

SMILES strings stand for the structures.

The target in this assay is T1, human TSHR (Homo sapiens, UniProt P16473).
T1 construct: expressed in transfected cells
T1 sequence (P16473 21-764): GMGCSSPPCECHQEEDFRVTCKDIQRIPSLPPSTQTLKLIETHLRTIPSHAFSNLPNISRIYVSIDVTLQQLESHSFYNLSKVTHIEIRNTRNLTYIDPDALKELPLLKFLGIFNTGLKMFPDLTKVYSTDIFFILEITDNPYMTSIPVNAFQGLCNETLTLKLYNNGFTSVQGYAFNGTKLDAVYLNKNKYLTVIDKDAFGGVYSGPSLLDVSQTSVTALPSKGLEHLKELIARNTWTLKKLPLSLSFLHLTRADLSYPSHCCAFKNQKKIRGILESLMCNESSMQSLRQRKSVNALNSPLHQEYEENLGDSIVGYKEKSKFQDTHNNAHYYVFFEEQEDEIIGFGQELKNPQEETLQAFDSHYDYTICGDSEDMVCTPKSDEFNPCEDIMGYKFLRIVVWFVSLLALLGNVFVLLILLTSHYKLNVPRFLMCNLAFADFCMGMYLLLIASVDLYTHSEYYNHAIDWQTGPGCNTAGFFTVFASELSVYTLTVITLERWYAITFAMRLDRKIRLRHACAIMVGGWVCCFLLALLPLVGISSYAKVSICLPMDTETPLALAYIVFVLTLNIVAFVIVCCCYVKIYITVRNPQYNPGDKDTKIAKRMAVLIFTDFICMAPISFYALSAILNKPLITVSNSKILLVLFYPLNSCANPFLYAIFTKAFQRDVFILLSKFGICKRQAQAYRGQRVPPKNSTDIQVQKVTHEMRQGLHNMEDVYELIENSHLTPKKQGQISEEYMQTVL
Put plainly: Antagonist activity using TSH-induced cAMP generation in human TSHR-stably expressing CHO cells. It counts as cell-based. The conditions noted are these: human TSH 50 ng/mL. The method, then:
Measurement of antagonist activity using TSH-induced cAMP generation in human TSHR-stably expressing CHO cells as an indicator
The gene sequence (reference number: NM_000369.2) of a human TSHR was inserted into multiple cloning sites of pcDNA3.1 (+). Prepared plasmid vectors were introduced into CHO cells using a lipofection method, and human TSHR-stably expressing CHO cells were established. Obtained cells were seeded in a 96-well poly-D-lysine-coated plate at 5 × 10^4 cells/well and cultured in an F12 culture medium containing 10%FBS, 400 µg/mL of G418, 50 U/mL of penicillin, and 50 µg/mL of streptomycin under conditions of 37°C and 5% CO2 for one day. After the culture medium was removed, the cells were washed twice with 100 µL of an assay buffer solution (Hanks' Balanced Salt Solution containing 20 mM HEPES and 1 mM IBMX) per well. 30 µL of a test compound-containing assay buffer solution was added to the well and incubated at room temperature for 15 minutes. Next, 30 µL of an assay buffer solution containing human TSH (final concentration: 50 ng/mL, R&D Systems, Inc.) was added thereto and incubated at 37°C for one hour. A supernatant was removed, a Lysis and Detection Buffer 2(Cisbio) was added thereto, and the mixture was incubated at room temperature for one hour to prepare a cell lysate. According to the instruction manual of a cAMP Gs HiRange kit (Cisbio), the cell lysate, d2-labeled cAMP, and anti-cAMP Europium Cryptate labeled antibodies (Cisbio) were reacted together in a 384-well white microplate. Next, fluorescence intensity ratios (measurement wavelengths: 665 nm/620 nm) were measured using a multi-plate reader (PHERAstar FSX, BMG LABTECH, Japan). The fluorescence intensity ratio of each sample was converted to a cAMP content using a standard curve. The cAMP content was converted as a percentage of the control value to calculate a cAMP generation rate. The cAMP generation rates were plotted against the test compound concentrations using Prism (Graph Pad Software Inc.) to calculate IC50 values. The IC50's of the individual test compounds are shown in the above tables. In the tables, IC50 < 0.3 µM was denoted as A, and 0.3 µM ≤ IC50 < 30 µM was denoted as B. Cases where the IC50 values were not calculated for test compounds from which activity was recognized are denoted as C.
`CC(C)(C)OC(=O)Nc1ccc(-c2cccnc2CCC(N)=O)c(C(=O)c2ccccc2C(F)(F)F)c1F` [Example E-8, tert-Butyl (4-(2-(3-amino-3-oxopropyl)pyridin-3-yl)-2-fluoro-3-(2-(trifluoromethyl)benzoyl)phenyl)carbamate]: the concentration for half-maximal inhibition (IC50) is below 300 nM.
For the molecule `CC(C)(C)OC(=O)Nc1ccc(-c2cccnc2CNC(N)=O)c(Cc2ccccc2OCc2ccccc2)c1F` [Example A-18, tert-Butyl (3-(2-(benzyloxy)benzyl)-2-fluoro-4-(2-(ureidomethyl)pyridin-3-yl)phenyl)carbamate], the IC50 fell in the range of 300 to 30000 nM.
The result for `Cc1ccnc(CNC(N)=O)c1-c1ccc(NC(=O)OC(C)(C)C)c(F)c1Cc1ccccc1` [Example A-9, tert-Butyl (3-benzyl-2-fluoro-4-(4-methyl-2-(ureidomethyl)pyridin-3-yl)phenyl)carbamate] reads 300 to 30000 nM.
`NC(=O)NCc1ncccc1-c1ccc(NC(=O)OCC2CCOC2)c(F)c1Cc1ccccc1F` (stereo not shown) [Example A-35] came in with an IC50 below 300 nM.
Take `CC(C)(C)OC(=O)Nc1ccc(-c2nccnc2CCC(N)=O)c(Cc2ccccc2)c1F` [Example H-1, tert-Butyl (4-(3-(3-amino-3-oxopropyl)pyrazin-2-yl)-3-benzyl-2-fluorophenyl)carbamate]: the IC50 fell in the range of 300 to 30000 nM.
For `CC(C)(COCc1ccccc1)OC(=O)Nc1ccc(-c2cccnc2CNC(N)=O)c(Cc2ccccc2F)c1F` [Example A-20, 1-(Benzyloxy)-2-methylpropan-2-yl (2-fluoro-3-(2-fluorobenzyl)-4-(2-(ureidomethyl)pyridin-3-yl)phenyl)carbamate] the value was below 300 nM; for `CC(C)(C)OC(=O)Nc1ccc(-c2cccnc2CCC(N)=O)c(C(=O)c2ccccc2F)c1F` [Example E-3, tert-Butyl (4-(2-(3-amino-3-oxopropyl)pyridin-3-yl)-2-fluoro-3-(2-fluorobenzoyl)phenyl)carbamate], below 300 nM; for `NC(=O)NCc1ncccc1-c1ccc(NC(=O)OC[C@H]2C[C@@H]2F)c(F)c1Cc1ccccc1F` (relative stereo) [Example A-32], below 300 nM.
For `CC(C)(C)OC(=O)Nc1ccc(-c2cccnc2CNC(N)=O)c(CC2CC2)c1F` [Example F-9, tert-Butyl (3-(cyclopropylmethyl)-2-fluoro-4-(2-(ureidomethyl)pyridin-3-yl)phenyl)carbamate] the value was 300 to 30000 nM.
For `CC(C)(C)OC(=O)Nc1ccc(-c2cccnc2CNC(N)=O)c(Cc2cccc(F)c2)c1F` [Example A-15], the IC50 was in the range of 300 to 30000 nM.
For `CC(C)(C)OC(=O)Nc1ccc(-c2cccnc2CNC(N)=O)c(Cc2ccc(F)cc2)c1F` [Example A-16] the value was below 300 nM; for `CC(C)(C#N)COC(=O)Nc1ccc(-c2cccnc2CNC(N)=O)c(Cc2ccccc2F)c1F` [Example A-7], below 300 nM.
The result for `NC(=O)NCc1ncccc1-c1ccc(NC(=O)OCC2CC2(F)F)c(F)c1Cc1ccccc1F` (stereo not shown) [Example A-33] reads below 300 nM; that for `CC(C)(C)OC(=O)Nc1ccc(-c2cccnc2CNC(N)=O)c(Cc2ccccc2O)c1F` [Example A-19, tert-Butyl (2-fluoro-3-(2-hydroxybenzyl)-4-(2-(ureidomethyl)pyridin-3-yl)phenyl)carbamate], below 300 nM.
The result for `CC(c1ccccc1)c1cc(NC(=O)OC(C)(C)C)ccc1-c1cccnc1CCC(N)=O` (stereo not shown) [Example A-12, tert-Butyl (4-(2-(3-amino-3-oxopropyl)pyridine-3-yl)-3-(1-phenylethyl)phenyl)carbamate] reads 300 to 30000 nM; that for `CC1(C(=O)Nc2ccc(-c3cccnc3CNC(N)=O)c(Cc3ccccc3F)c2F)CC1` [Example G-1, N-(2-Fluoro-3-(2-fluorobenzyl)-4-(2-(ureidomethyl)pyridin-3-yl)phenyl)-1-methylcyclopropane-1-carboxamide], 300 to 30000 nM.
`NC(=O)NCc1ncccc1-c1ccc(NC(=O)OC2CCOC2)c(F)c1Cc1ccccc1F` (stereo not shown) [Example A-28]: the IC50 fell in the range of 300 to 30000 nM.
In the case of `CC(C)OC(=O)Nc1ccc(-c2cccnc2CNC(N)=O)c(Cc2ccccc2F)c1F` [Example A-22], the IC50 is below 300 nM.
In the case of `C[C@H](OC(=O)Nc1ccc(-c2cccnc2CNC(N)=O)c(Cc2ccccc2F)c1F)C(F)(F)F` [Example A-23], the IC50 is below 300 nM.
For `CC1(OC(=O)Nc2ccc(-c3ccnnc3CNC(N)=O)c(Cc3ccccc3F)c2F)CC1` [Example C-3, 1-Methylcyclopropyl (2-fluoro-3-(2-fluorobenzyl)-4-(3-(ureidomethyl)pyridazin-4-yl)phenyl)carbamate] the value was 300 to 30000 nM; for `NC(=O)NCc1ncccc1-c1ccc(NC(=O)C2CCCO2)c(F)c1Cc1ccccc1F` (stereo not shown) [Example G-5], 300 to 30000 nM.
Molecule `CC(C)(C)OC(=O)Nc1ccc(-c2ccnnc2CCC(N)=O)c(Oc2ccccc2F)c1F` [Example D-3, tert-Butyl (4-(3-(3-amino-3-oxopropyl)pyridazin-4-yl)-2-fluoro-3-(2-fluorophenoxy)phenyl)carbamate] displayed a half-maximal inhibitory concentration (IC50) below 300 nM.
Take `CC(C)(OC(=O)Nc1ccc(-c2cccnc2CNC(N)=O)c(Cc2ccccc2C#N)c1F)C(F)F` [Example A-37, 1,1-Difluoro-2-methylpropan-2-yl (3-(2-cyanobenzyl)-2-fluoro-4-(2-(ureidomethyl)pyridin-3-yl)phenyl)carbamate]: the IC50 lay within 300 to 30000 nM.
The molecule `NC(=O)NCc1ncccc1-c1ccc(NC(=O)C2CC(F)(F)C2)c(F)c1Cc1ccccc1F` [Example G-4, 3,3-Difluoro-N-(2-fluoro-3-(2-fluorobenzyl)-4-(2-(ureidomethyl)pyridin-3-yl)phenyl)cyclobutane-1-carboxamide] showed an IC50 below 300 nM.
For `NC(=O)NCc1ncccc1-c1ccc(NC(=O)OC2CN3CCC2CC3)c(F)c1Cc1ccccc1F` (stereo not shown) [Example A-29, (2-Fluoro-3-(2-fluorobenzyl)-4-(2-(ureidomethyl)pyridine-3-yl)phenyl)carbamate quinuclidine-3-yl] the value was 300 to 30000 nM.
Turning to `C[C@@H](OC(=O)Nc1ccc(-c2cccnc2CNC(N)=O)c(Cc2ccccc2F)c1F)C(F)(F)F` [Example A-24], the IC50 was below 300 nM.
The result for `CON(C(=O)Nc1ccc(-c2cccnc2CNC(N)=O)c(Cc2ccccc2F)c1F)C1CCCC1` [Example G-9, 1-Cyclopentyl-3-(2-fluoro-3-(2-fluorobenzyl)-4-(2-(ureidomethyl)pyridin-3-yl)phenyl)-1-methoxyurea] reads 300 to 30000 nM; that for `NC(=O)NCc1ncccc1-c1ccc(NC(=O)OC2CC(F)(F)C2)c(F)c1Oc1ccccc1F` [Example B-5], 300 to 30000 nM; that for `NC(=O)NCc1ncccc1-c1ccc(NC(=O)C2CC2)c(F)c1Cc1ccccc1F` [Example G-3, N-(2-Fluoro-3-(2-fluorobenzyl)-4-(2-(ureidomethyl)pyridin-3-yl)phenyl)cyclopropanecarboxamide], 300 to 30000 nM.
For `CC(C)(C)OC(=O)Nc1ccc(-c2cccnc2CCC(N)=O)c(Cc2ncccc2F)c1F` [Example F-2, tert-Butyl (4-(2-(3-amino-3-oxopropyl)pyridin-3-yl)-2-fluoro-3-((3-fluoropyridin-2-yl)methyl)phenyl)carbamate] the value was 300 to 30000 nM; for `CC(C)(C)OC(=O)Nc1ccc(-c2cccnc2CNC(N)=O)c(CN2CCOCC2)c1F` [Example F-4, tert-Butyl (2-fluoro-3-(morpholinomethyl)-4-(2-(ureidomethyl)pyridin-3-yl)phenyl)carbamate], 300 to 30000 nM.
The molecule `C[C@H](OC(=O)Nc1ccc(-c2cccnc2CCC(N)=O)c(C(=O)c2ccccc2F)c1F)C1CC1` [Example E-5, (S)-1-Cyclopropylethyl (4-(2-(3-amino-3-oxopropyl)pyridin-3-yl)-2-fluoro-3-(2-fluorobenzoyl)phenyl)carbamate] yielded an IC50 below 300 nM.
Turning to `NC(=O)NCc1ncccc1-c1ccc(NC(=O)OC2CC(F)(F)C2)c(F)c1Cc1ccccc1F` [Example A-6], the IC50 was below 300 nM.
For `NC(=O)NCc1nnccc1-c1ccc(NC(=O)OC2(C3CC3)CC2)c(F)c1Cc1ccccc1F` [Example C-10] the value was 300 to 30000 nM.
The result for `NC(=O)NCc1ncccc1-c1ccc(NC(=O)OCc2ccccc2F)c(F)c1Cc1ccccc1F` [Example A-36] reads below 300 nM; that for `NC(=O)NCc1ncccc1-c1ccc(NC(=O)OC2CCC(F)(F)C2)c(F)c1Cc1ccccc1F` (stereo not shown) [Example A-27, 3,3-Difluorocyclopentyl (2-fluoro-3-(2-fluorobenzyl)-4-(2-(ureidomethyl)pyridin-3-yl)phenyl)carbamate], below 300 nM.
The molecule `N#CC1(COC(=O)Nc2ccc(-c3cccnc3CNC(N)=O)c(Cc3ccccc3F)c2F)CC1` [Example A-8] had an IC50 below 300 nM.
